This note sets out measurements from patent US6384047B1, “Benzonaphthyridine” (Byk Gulden Lomberg Chemische Fabrik GmbH, priority 1997, dated 2002).

The structures appear in SMILES notation.

The target of data set [1] is T1, PDE2 (cGMP-stimulated) from rats' hearts (Rattus norvegicus, UniProt Q01062).
T1 construct: PDE2 (cGMP-stimulated) from rats' hearts was purified chromatographically; from tissue; host or cells: rat heart
T1 sequence (Q01062 1-928): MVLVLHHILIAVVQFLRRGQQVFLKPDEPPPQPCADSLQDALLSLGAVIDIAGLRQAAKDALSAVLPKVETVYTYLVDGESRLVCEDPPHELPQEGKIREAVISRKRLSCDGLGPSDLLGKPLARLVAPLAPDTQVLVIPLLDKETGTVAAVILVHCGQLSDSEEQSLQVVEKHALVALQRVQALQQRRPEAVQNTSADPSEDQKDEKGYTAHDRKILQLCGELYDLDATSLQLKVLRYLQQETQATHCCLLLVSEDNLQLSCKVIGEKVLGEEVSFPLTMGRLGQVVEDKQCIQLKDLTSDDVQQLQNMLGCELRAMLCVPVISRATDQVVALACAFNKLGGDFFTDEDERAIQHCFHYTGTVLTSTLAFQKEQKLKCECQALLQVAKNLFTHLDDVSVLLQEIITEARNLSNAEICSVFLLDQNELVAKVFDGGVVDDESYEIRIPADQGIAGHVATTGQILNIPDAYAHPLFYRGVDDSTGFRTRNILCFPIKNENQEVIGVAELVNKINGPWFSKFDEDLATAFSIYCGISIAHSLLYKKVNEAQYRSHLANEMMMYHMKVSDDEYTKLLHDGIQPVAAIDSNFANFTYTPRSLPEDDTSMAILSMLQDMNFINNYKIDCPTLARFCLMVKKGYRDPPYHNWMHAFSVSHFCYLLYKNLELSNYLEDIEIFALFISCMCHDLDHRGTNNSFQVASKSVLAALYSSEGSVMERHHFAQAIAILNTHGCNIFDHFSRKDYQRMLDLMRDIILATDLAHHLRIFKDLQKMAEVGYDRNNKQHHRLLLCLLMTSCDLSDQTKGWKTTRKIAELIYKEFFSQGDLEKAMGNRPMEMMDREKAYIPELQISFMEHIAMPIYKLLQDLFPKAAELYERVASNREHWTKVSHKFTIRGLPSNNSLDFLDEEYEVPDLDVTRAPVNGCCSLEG
As to the kind of experiment: Inhibition of the PDE isoenzymes: PDE2. In kind it is biochemical. To be noted: in presence of cGMP (5 μM), cAMP as substrate, read-out: PDE2 inhibitory concentration as -log IC50 (converted). On the procedure:
(§1) The PDE activity was determined according to Thompson et al. (1) with a few modifications (2). The test samples contained 40 mM tris HCl (pH 7.4), 5 mM MgCl2, 0.5 μM cAMP or cGMP, [^3H] cAMP or [^3H]cGMP (about 50,000 cpm/sample), the PDE isoenzyme-specific additives described in greater detail below, the given concentrations of inhibitor and an aliquot of the enzyme solution in a total sample volume of […]. […] After preincubation at 37° C. for 5 minutes, the reaction was started by addition of the substrate (cAMP or cGMP). The samples were incubated at 37° C. for a further 15 min. The reaction was stopped by addition of 50 μl of 0.2N HCl. After cooling on ice for 10 minutes and addition of 25 μg of 5′-nucleotidase (snake venom from Crotalus atrox), incubation was carried out again for 10 min. at 37° C. and the samples were then applied to QAE Sephadex A-25 columns. The columns were eluted with 2 ml of 30 mM ammonium formate (pH 6.0). The radioactivity of the eluate was measured and corrected by the corresponding blank values. The proportion of hydrolyzed nucleotide in no case exceeded 20% of the original substrate concentration.
PDE2 (cGMP-stimulated) from rats' hearts was purified chromatographically [Schudt et al. (4)] and investigated in the presence of cGMP (5 μM) using cAMP as a substrate.
(§2) The IC50 values were determined from the concentration inhibition curves by nonlinear regression using the program GraphPad InPlot™ (GraphPad Software Inc., Philadelphia, USA).

For data set [2], the system named is human PMNL. As to the kind of experiment: Inhibition of the formation of reactive oxygen species (FMLP-stimulated chemiluminescence) in human PMNL. In kind it is cell-based. To be noted: 0.05 h, FMLP 100 nM, luminol-potentiated chemiluminescence, AUC over 3 min, read-out: Inhibition of the FMLP-stimulated chemiluminiscence in human PMNL in vitro, inhibitory concentration as -log IC50 (converted).
Description: In the investigation of PDE4 inhibition at the cellular level, the activation of inflammatory cells has particular importance. An example which may be mentioned is the FMLP (N-formylmethionylleucylphenylalanine)-induced superoxide production of neutrophilic granulocytes, which can be measured as luminol-potentiated chemiluminescence [McPhail L C, Strum S L, Leone P A and Sozzani S, The neutrophil respiratory burst mechanism. In “Immunology Serie” 1992, 57, 47-76; ed. Coffey R G (Marcel Decker, Inc., New York-Basel-Hong Kong)].
The formation of reactive oxygen species determined by means of luminol-potentiated chemiluminescence (5) and the isolation of the PMNL from human blood (6) was carried out essentially as described in (5) and (6): equal-size portions (0.5 ml) of the cell suspension (10^7 cells/ml) were preincubated at 37° C. for 5 min. In the absence or presence of the compounds to be investigated in a buffer solution containing 140 mM NaCl, 5 mM KCl, 10 mM HEPES, 1 mM CaCl2/MgCl2, 1 mg/ml of glucose, 0.05% (w/v) BSA (bovine serum albumin), 10 μM luminol and 4 μM microperoxidase. […]
as §2

Data set [3] deals with T2, PDE5 (cGMP-specific), homogenates of human blood platelets (Homo sapiens, UniProt O76074).
T2 construct: were investigated in homogenates of human blood platelets; from tissue; host or cells: human blood platelets (homogenate)
As to the kind of experiment: Inhibition of the PDE isoenzymes: PDE5. To be noted: cGMP as substrate, read-out: PDE5 inhibitory concentration as -log IC50 (converted). In kind it is biochemical. On the procedure:
as §1
(§3) PDE3 (cGMP-inhibited) and PDE5 (cGMP-specific) were investigated in homogenates of human blood platelets [Schudt et al. (4)] using cAMP or cGMP as a substrate.
as §2

For data set [4], the target named is PDE4 (cAMP-specific), cytosol of human polymorphonuclear leucocytes (PMNL). As to the kind of experiment: Inhibition of the PDE isoenzymes: PDE4. In kind it is biochemical. As to conditions: cAMP as substrate, motapizone (1 μM) present. Here is the method:
as §1
PDE4 (cAMP-specific) was investigated in the cytosol of human polymorphonuclear leucocytes (PMNL) [isolated from leucocyte concentrates, see Schudt et al. (5)] using cAMP as a substrate. The PDE3 inhibitor motapizone (1 μM) was used in order to suppress the PDE3 activity emanating from contaminating blood platelets.
as §2

Data set [5] has as its target T3, PDE3 (cGMP-inhibited), homogenates of human blood platelets (Homo sapiens, UniProt Q14432).
T3 construct: were investigated in homogenates of human blood platelets; from tissue; host or cells: human blood platelets (homogenate)
As to the kind of experiment: Inhibition of the PDE isoenzymes: PDE3. In kind it is biochemical. As to conditions: cAMP as substrate, read-out: PDE3 inhibitory concentration as -log IC50 (converted). Here is the method:
as §1, §3, §2

The target in data set [6] is PDE1 (Ca2+/calmodulin-dependent) from bovine brain. As to the kind of experiment: Inhibition of the PDE isoenzymes: PDE1. As to conditions: Ca2+ (1 mM) and calmodulin (100 nM), cGMP as substrate. In kind it is biochemical. Here is the method: as §1
PDE1 (Ca^2+/calmodulin-dependent) from bovine brain: the inhibition of this isoenzyme was investigated in the presence of Ca^2+ (1 mM) and calmodulin (100 nM) using cGMP as a substrate (3).
as §2

T3 sequence (Q14432 whole entry): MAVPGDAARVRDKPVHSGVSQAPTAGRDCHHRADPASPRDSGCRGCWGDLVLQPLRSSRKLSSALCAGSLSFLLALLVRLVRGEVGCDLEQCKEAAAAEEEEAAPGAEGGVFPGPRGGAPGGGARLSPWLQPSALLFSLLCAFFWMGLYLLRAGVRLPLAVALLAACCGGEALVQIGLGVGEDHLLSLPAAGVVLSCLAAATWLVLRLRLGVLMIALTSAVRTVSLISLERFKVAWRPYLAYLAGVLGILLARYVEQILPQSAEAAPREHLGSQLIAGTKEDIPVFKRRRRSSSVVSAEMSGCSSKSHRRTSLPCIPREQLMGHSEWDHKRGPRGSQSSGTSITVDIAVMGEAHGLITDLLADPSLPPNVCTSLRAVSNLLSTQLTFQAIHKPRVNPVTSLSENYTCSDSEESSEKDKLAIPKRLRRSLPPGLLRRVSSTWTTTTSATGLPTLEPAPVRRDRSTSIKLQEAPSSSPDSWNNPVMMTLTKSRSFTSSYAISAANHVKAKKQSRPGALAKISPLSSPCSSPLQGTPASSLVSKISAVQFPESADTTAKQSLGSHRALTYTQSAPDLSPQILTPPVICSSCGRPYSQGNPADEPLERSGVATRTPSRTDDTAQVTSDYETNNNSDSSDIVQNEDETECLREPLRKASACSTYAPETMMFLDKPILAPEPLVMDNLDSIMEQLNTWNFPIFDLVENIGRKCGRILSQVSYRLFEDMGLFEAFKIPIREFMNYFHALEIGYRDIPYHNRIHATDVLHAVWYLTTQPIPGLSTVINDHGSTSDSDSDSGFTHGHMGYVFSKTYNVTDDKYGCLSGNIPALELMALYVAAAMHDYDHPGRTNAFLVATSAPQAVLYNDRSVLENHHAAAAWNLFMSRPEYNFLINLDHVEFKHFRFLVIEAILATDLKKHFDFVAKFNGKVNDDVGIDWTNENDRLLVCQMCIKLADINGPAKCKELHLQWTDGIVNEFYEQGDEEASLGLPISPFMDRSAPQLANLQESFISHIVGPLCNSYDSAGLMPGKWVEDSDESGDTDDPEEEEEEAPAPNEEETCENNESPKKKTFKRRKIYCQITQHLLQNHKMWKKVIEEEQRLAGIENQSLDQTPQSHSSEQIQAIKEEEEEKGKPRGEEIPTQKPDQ

For the compound `CCOc1cc2c(cc1OCC)[C@@H]1CN(C)CC[C@@H]1N=C2c1ccc(NS(=O)(=O)c2ccc(C)cc2)cc1` (relative stereo) [Compound 1, (−)-cis-8,9-Diethoxy-2-methyl-6-[4-(p-toluenesulfonamido)-phenyl]-1,2,3,4,4a,10b-hexahydro-benzo[c][1,6]naphthyridine], the melting point is 267 to 268 °C. The IC50 in data set [1] was 1100 nM. In data set [2], the IC50 was 40.7 nM. The IC50 in data set [3] is 91.2 nM. For the same compound, the “PDE4 inhibitory concentration as -log IC50” value in data set [4] was 8.60. In data set [5], the IC50 was 79.4 nM. Moreover, the “PDE1 inhibitory concentration as -log IC50” value in data set [6] is recorded as less than 5.

`CCOc1cc2c(cc1OC)C(c1ccc(NS(=O)(=O)c3ccc(C)cc3)cc1)=N[C@H]1CCN(C)C[C@@H]21` (relative stereo) [Compound 2, (−)-cis-9-Ethoxy-8-methoxy-2-methyl-6-[4-(p-toluenesulfonamido)-phenyl]-1,2,3,4,4a,10b-hexahydro-benzo[c][1,6]naphthyridine] displayed a melting point of 207 to 219 °C. Further, in data set [1], the IC50 was 407 nM. Moreover, the IC50 in data set [3] is 182 nM. The “PDE4 inhibitory concentration as -log IC50” value in data set [4] came to 9.00. Moreover, in data set [5], the IC50 is 52.5 nM. For the same compound, in data set [6], the “PDE1 inhibitory concentration as -log IC50” value came out at 5.14.

In the case of `COc1cc2c(cc1OC)[C@@H]1CN(C)CC[C@@H]1N=C2c1ccc(NS(=O)(=O)c2ccc(C)cc2)cc1` (relative stereo) [Tolafentrine, (−)-cis-8,9-Dimethoxy-2-methyl-6-[4-(p-toluenesulfonamido)-phenyl]-1,2,3,4,4a,10b-hexahydrobenzo[c][1,6]naphthyridine, reference compound], the IC50 in data set [1] is 813 nM; in data set [2] it was 851 nM; in data set [3], 2340 nM; in data set [5], 95.5 nM. Also, the “PDE4 inhibitory concentration as -log IC50” value in data set [4] was determined as 7.20. For the same compound, the “PDE1 inhibitory concentration as -log IC50” value in data set [6] was 4.75.

As usually defined, the melting point is the temperature of the solid-liquid transition.
